Data published in PubChem BioAssay (NCI).
Where “and” joins values, the source holds several entries; their conditions need not be identical. Equal entries are not always repeated.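 All cell lines were grown in 96-well plates and treated with compound for 48 hours. Here, GI50 denotes the concentration required for 50% inhibition of growth. Definition used: TGI = concentration required for complete inhibition of growth.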

Tests used:
Test in all cases: NCI tumour cell line growth inhibition, 48 h
SK-MEL-5 melanoma = system: SK-MEL-5 melanoma
HOP-62 NSCLC = system: HOP-62 NSCLC
UO-31 renal = system: UO-31 renal
KM12 colon = system: KM12 colon
OVCAR-3 ovarian = system: OVCAR-3 ovarian
OVCAR-4 ovarian = system: OVCAR-4 ovarian
NCI-H23 lung = system: NCI-H23 lung
SK-MEL-28 melanoma = system: SK-MEL-28 melanoma
OVCAR-5 ovarian = system: OVCAR-5 ovarian
K-562 leukemia = system: K-562 leukemia
MOLT-4 leukemia = system: MOLT-4 leukemia

| SMILES | TGI (SK-MEL-5 melanoma) | TGI (HOP-62 NSCLC) | TGI (UO-31 renal) | TGI (KM12 colon) | TGI (OVCAR-3 ovarian) | TGI (OVCAR-4 ovarian) | TGI (NCI-H23 lung) | TGI (SK-MEL-28 melanoma) | TGI (OVCAR-5 ovarian) | TGI (K-562 leukemia) | TGI (MOLT-4 leukemia) | GI50 (HOP-62 NSCLC) | GI50 (KM12 colon) | GI50 (OVCAR-3 ovarian) | GI50 (OVCAR-4 ovarian) | GI50 (NCI-H23 lung) | GI50 (SK-MEL-28 melanoma) | GI50 (OVCAR-5 ovarian) | GI50 (K-562 leukemia) | GI50 (MOLT-4 leukemia) |
| --- | --- | --- | --- | --- | --- | --- | --- | --- | --- | --- | --- | --- | --- | --- | --- | --- | --- | --- | --- | --- |
| CCSc1nc(N)c2c(-c3ccc(OC)c(OC)c3)c3c(nc2n1)CCCC3 | > 100 µM | > 100 µM | > 100 µM | > 100 µM | > 100 µM | > 100 µM | > 100 µM | > 100 µM | > 100 µM | > 100 µM | > 100 µM |  |  |  |  |  |  |  |  |  |
| CC1C(=O)OC2CC[N+]3(CC(=O)c4ccc(Br)cc4)CC=C(COC(=O)C(C)(O)C1(C)O)C23 (stereo not given) | > 375 µM | > 375 µM | > 375 µM | > 375 µM | > 375 µM | > 375 µM | > 375 µM | > 375 µM | > 375 µM | > 375 µM | > 375 µM |  |  |  |  |  |  |  |  |  |
| COC(=O)CCC(=O)CC(=O)C1=NS(=O)(=O)c2nc(S(N)(=O)=O)c(Cl)cc2N1 | > 100 µM | > 100 µM | > 100 µM | > 100 µM | > 100 µM | > 100 µM | > 100 µM | > 100 µM | > 100 µM | > 100 µM | > 100 µM |  |  |  |  |  |  |  |  |  |
| N#C[S-].[Nd+3].c1cnc2c(c1)ccc1cccnc12.c1cnc2c(c1)ccc1cccnc12.c1cnc2c(c1)ccc1cccnc12 | 14.1 µM | 20.6 µM | 11.2 µM | 22.6 µM | 16.1 µM | 14.4 µM | 23.3 µM | 32.1 µM | 15.3 µM | > 100 µM | 6.64 µM |  |  |  |  |  |  |  |  |  |
| CN(C)c1ccc(/C=C2/SC(=S)NC2=O)cc1 | > 100 µM | > 100 µM | > 100 µM | > 100 µM | > 100 µM | > 100 µM | > 100 µM | > 100 µM | 72.6 µM | > 100 µM | > 100 µM |  |  |  |  |  |  |  |  |  |
| Cc1cc(NC(=S)Nc2ccccc2)c(NC(=S)Nc2ccccc2)cc1C | > 100 µM | > 100 µM | > 74.6 µM | > 100 µM | 50.9 µM | > 100 µM | > 95.1 µM | > 100 µM | > 100 µM | 41.2 µM | > 60.1 µM |  |  |  |  |  |  |  |  |  |
| Nc1ccccc1CCCC(=O)O | > 100 µM | > 100 µM | > 100 µM | > 100 µM | > 100 µM | > 100 µM | > 100 µM | > 100 µM | > 100 µM | > 100 µM | > 100 µM |  |  |  |  |  |  |  |  |  |
| CC(C)(C)NCc1cc(Nc2ccnc3cc(Cl)ccc23)cc(-c2ccc(Cl)cc2)c1O | 3.15 µM | 6.38 µM | 18.1 µM | 10.4 µM | 8.75 µM | 14.5 µM | 14 µM | 3.26 µM | 16.3 µM | 2.75 µM | 4.55 µM |  |  |  |  |  |  |  |  |  |
| CC1=C(C)C(=O)O[C@@H]([C@](C)(O)[C@]2(O)CC[C@@]3(O)[C@@H]4C[C@H]5O[C@]56[C@@H](O)C=CC(=O)[C@]6(C)[C@H]4CC[C@]23C)C1 | 2.18 µM | 11.4 µM and 14.6 µM | 6.36 µM | 6.73 µM and 4.57 µM | 1.64 µM and 0.359 µM | 3.08 µM and 1 µM | 4.63 µM and 1.29 µM | 5.86 µM and 3.44 µM | 8.44 µM and 5.88 µM | 2.62 µM and 15 µM |  | 1.28 µM | 0.95 µM and 0.637 µM | 0.136 µM and 0.0594 µM | 0.0878 µM and 0.43 µM | 0.38 µM and 0.205 µM | 0.606 µM and 0.228 µM | 3.55 µM and 1.47 µM | 0.126 µM and 0.0515 µM | 0.0688 µM and 0.177 µM |
| S=C1SC(=Nc2ccccc2)C(=Nc2ccccc2)N1c1ccccc1 | > 100 µM | > 100 µM | > 100 µM | > 100 µM | > 100 µM | > 100 µM | > 100 µM | > 100 µM | > 100 µM | > 100 µM | > 100 µM |  |  |  |  |  |  |  |  |  |
| C[n+]1c2ccccc2c(CNc2ccc(S(=O)(=O)N=C(N)N)cc2)c2ccccc21 | 22.8 µM | 40 µM | 45.5 µM | 27.7 µM | 48.7 µM | > 100 µM | 33.3 µM | 40.7 µM | > 100 µM | 52 µM | 1.7 µM |  |  |  |  |  |  |  |  |  |
| COCO[C@@H]1C[C@H]2C(O)Nc3ccccc3C(=O)N2C1 (stereo not given in full) | > 100 µM | > 100 µM | > 100 µM | > 100 µM | > 100 µM | > 100 µM | > 100 µM | > 100 µM | > 100 µM | > 100 µM | > 100 µM |  |  |  |  |  |  |  |  |  |
